Experiment [1] relates to NIH-3T3/Gli reporter cells. The experiment in a line: Evaluation of compound: Shh-N-induced luciferase activity in NIH-3T3/Gli reporter cells (Smo inhibitory action). The format is cell-based. The note with it: 48 hr; for inhibition at 1 µM: NIH3T3, 1 μM compound, mouse Shh-N end fragment supernatant, read-out: inhibition rate (%) at 1 μM. As to the method:
HEK293 cells were grown in D-MEM medium (Invitrogen) containing 10% fetal bovine serum in a 10 cm dish and pcDNA3.1/mShh-N was introduced into the cells using FuGENE6 (Roche Applied Science). Thereafter, the HEK293 cells were cultured in a carbon dioxide gas incubator at 37° C. for 24 hours, and the medium was exchanged with D-MEM medium (Invitrogen) containing 2% fetal bovine serum. After culturing for 48 hr, a culture supernatant containing recombinant type mouse Shh-N end fragment was obtained by filtration using a filter ([…]).
Using D-MEM (Invitrogen) containing 10% fetal bovine serum, expression plasmid pcDNA3.1 and Gli reporter plasmid (pGL3/δ-cry promoter, 8×Gli binding site) produced by the method of Experimental Example 1 were introduced into NIH-3T3 cells grown in a 10 cm dish by the use of FuGENE6 (Roche Applied Science).
After culture for 24 hr, the cells were recovered, suspended in D-MEM medium containing 10% fetal bovine serum and supplemented with Geneticin (Life Technologies Oriental, Inc.) to a final concentration of 500 μg/ml, diluted to 10^4 cells/ml, plated on a 96 well plate, and cultured in a carbon dioxide gas incubator at 37° C. to give Geneticin resistant transformed cell line.
The obtained transformed cell line was cultured in a 96 well plate, mouse Shh-N end fragment obtained in Experimental Example 3 was added, and NIH-3T3/Gli reporter cell, which is a cell line capable of induction of luciferase expression, was selected.
NIH-3T3/Gli reporter cells cultured in D-MEM (Invitrogen) containing 10% fetal bovine serum were plated in a 96 well white plate at 1×10^4 cells/well, and cultured overnight in a carbon dioxide gas incubator at 37° C. The medium was removed, a compound (50 μl) and culture supernatant of mouse Shh-N end fragment-expressing HEK293 (D-MEM medium containing 2% fetal bovine serum, 50 μl) were added, and the cells were cultured for 48 hr in a carbon dioxide gas incubator at 37° C. Bright-Glo (Promega, 50 μl) was added, and the mixture was stirred, after which luciferase activity was measured by EnVision (PerkinElmer). The inhibition rate was calculated based on the luciferase activity of the control without addition of the compound as 100. The concentration of the compound and the inhibition rate were analyzed by PRISM3.00 (software of GraphPad), based on which the IC50 value (compound concentration necessary for achieving 50% of the maximum value of inhibition rate) of the compound was calculated.

Experiment [2] concerns mouse medulloblastoma allogeneic transplantation model. The experiment in a line: In vivo anti-tumor test, mouse medulloblastoma allogeneic transplantation model. The conditions noted are these: 6.25 mg/kg orally twice a day for 2 weeks; nude mouse, subcutaneous medulloblastoma from Patched 1(+/-), p53(-/-) mouse; end of administration. As to the method:
According to the description in Sasaki, K. et al., (2006) Cancer Res. 66: 4215-4222, an anti-tumor effect of a compound was evaluated using a mouse medulloblastoma allogeneic transplantation model. To be precise, Patched 1 gene mutant mouse (lineage name: Ptch1tm1Mps/J) was purchased from The Jackson Laboratory and p53 gene mutant mouse (lineage name: P53N4-M, Nomenclature: B6.129-Trp53tm/BrdN4) was purchased from Taconic, and a mouse of Patched 1(+/−), p53(−/−) phenotype was prepared by mating. The tumor tissue of medulloblastoma spontaneously occurred in the cerebellum of 7- to 9-week-old Patched 1(+/−), p53(−/−) mouse was taken and subcutaneously transplanted into a nude mouse (lineage name: CAnN.Cg-Foxn1/CrlCrlj).
An anti-tumor test was performed using a tumor passaged by subcutaneous transplantation. A tumor mass was isolated by a 40 μm cell strainer (BD Biosciences, Cat. No. 352340), a tumor suspension was prepared with Leibovitz's L-15 medium (GIBCO, Cat. No. 11415-114) in a 2-fold amount relative to the tumor mass weight, mixed with an equivalent amount of matrigel (BD Biosciences, Cat. No. 356237), and subcutaneously transplanted to a mouse at […] per transplantation site. The tumor diameter after transplantation was measured and, when the tumor size reached 150-250 mm^3, the anti-tumor test was started using 5 mice per group.
The test compound was prepared to achieve a dose of 6.25 mg/kg with a 0.5% methylcellulose (Shin-Etsu Chemical Co., Ltd., Cat. No. SM-100) suspension, and orally administered twice a day for 2 weeks. The tumor size was calculated based on the longer diameter and shorter diameter of the tumor measured with an electron vernier caliper. After the start of the test, the tumor size was measured every 2 or 3 days and the growth rate of the tumor size was calculated. A tumor growth inhibitory effect of 95% or above was confirmed in each test compound administration group.
The tumor growth rate and the results of a significant difference test by the administration of each test compound are shown in the Table. The growth rate of the tumor size (T/C) was calculated according to: growth rate (T/C)=((tumor size of compound administration group at the end of administration)−(tumor size of compound administration group at the start of administration))/((tumor size of control group at the end of administration)−(tumor size of control group at the start of administration))×100.

`COc1c(C(=O)NC2CCN(CCO)CC2)n(C)c2c1c(=O)n(CC(=O)c1ccccc1)c1ccccc21` [Example 79, N-[1-(2-hydroxyethyl)piperidin-4-yl]-3-methoxy-1-methyl-4-oxo-5-(2-oxo-2-phenylethyl)-4,5-dihydro-1H-pyrrolo[3,2-c]quinoline-2-carboxamide]: in experiment [1], the inhibition at 1 µM worked out at 100%. In experiment [1] (NIH3T3, mouse Shh-N end fragment supernatant, read-out: IC50 value (compound concentration necessary for achieving 50% of the maximum value of inhibition rate)), the IC50 is at most 1000 nM. For the same compound, in experiment [2], the “T/C (%) growth rate of the tumor size” value came to 0.8%.

As to `COc1c(C(=O)NC2CCN(C(=O)CO)CC2)n(C)c2c1c(=O)n(CC(=O)c1ccccc1)c1ccccc21` [Example 124, N-[1-(hydroxyacetyl)piperidin-4-yl]-3-methoxy-1-methyl-4-oxo-5-(2-oxo-2-phenylethyl)-4,5-dihydro-1H-pyrrolo[3,2-c]quinoline-2-carboxamide], in experiment [1], the inhibition at 1 µM came to 100%. In addition, the “T/C (%) growth rate of the tumor size” value in experiment [2] amounted to 2.0%.

On to `CCOc1c(C(=O)NC2CCN(C(=O)CO)CC2)n(C)c2cc(CC)n(CC(=O)c3ccccc3)c(=O)c12` [Example 139, 3-ethoxy-6-ethyl-N-[1-(hydroxyacetyl)piperidin-4-yl]-1-methyl-4-oxo-5-(2-oxo-2-phenylethyl)-4,5-dihydro-1H-pyrrolo[3,2-c]pyridine-2-carboxamide], for which the inhibition at 1 µM in experiment [1] was found to be 100%. Moreover, the “T/C (%) growth rate of the tumor size” value in experiment [2] came to 0.4%.

Turning to `Cc1cc2c(c(OCC(F)(F)F)c(C(=O)NC3CCN(C(=O)CO)CC3)n2C)c(=O)n1CC(=O)c1ccccc1` [Example 140, N-[1-(hydroxyacetyl)piperidin-4-yl]-1,6-dimethyl-4-oxo-5-(2-oxo-2-phenylethyl)-3-(2,2,2-trifluoroethoxy)-4,5-dihydro-1H-pyrrolo[3,2-c]pyridine-2-carboxamide], the inhibition at 1 µM in experiment [1] is 100%. The “T/C (%) growth rate of the tumor size” value in experiment [2] worked out at 5.3%.

Consider `CCc1cc2c(c(OCC(F)(F)F)c(C(=O)NC3CCN(C(=O)CO)CC3)n2C)c(=O)n1CC(=O)c1ccccc1` [Example 143, 6-ethyl-N-[1-(hydroxyacetyl)piperidin-4-yl]-1-methyl-4-oxo-5-(2-oxo-2-phenylethyl)-3-(2,2,2-trifluoroethoxy)-4,5-dihydro-1H-pyrrolo[3,2-c]pyridine-2-carboxamide], for which, in experiment [1], the inhibition at 1 µM amounted to 100%. Besides, the “T/C (%) growth rate of the tumor size” value in experiment [2] is given as 0.0%.

Take `COc1c(C(=O)NC2CCN(C(=O)CO)CC2)n(C)c2c1c(=O)n(CC(=O)c1ccccc1)c1ccncc21` [Example 644, N-[1-(hydroxyacetyl)piperidin-4-yl]-3-methoxy-1-methyl-4-oxo-5-(2-oxo-2-phenylethyl)-4,5-dihydro-1H-pyrrolo[3,2-c][1,6]naphthyridine-2-carboxamide]: in experiment [1], the inhibition at 1 µM came out at 100%.

Turning to `CCOc1c(C(=O)NC2CCN(C(=O)CO)CC2)sc2cc(CC)n(CC(=O)c3ccccc3)c(=O)c12` [Example 650, 3-ethoxy-6-ethyl-N-[1-(hydroxyacetyl)piperidin-4-yl]-4-oxo-5-(2-oxo-2-phenylethyl)-4,5-dihydrothieno[3,2-c]pyridine-2-carboxamide], in experiment [1], the inhibition at 1 µM was 100%.

Take `CCc1cc2c(c(OCC(F)(F)F)c(C(=O)NC3CCN(C(=O)CO)CC3)n2C)c(=O)n1Cc1ccccc1` [Example 654, 5-benzyl-6-ethyl-N-[1-(hydroxyacetyl)piperidin-4-yl]-1-methyl-4-oxo-3-(2,2,2-trifluoroethoxy)-4,5-dihydro-1H-pyrrolo[3,2-c]pyridine-2-carboxamide]: the inhibition at 1 µM in experiment [1] was 100%.

In the case of `CCc1cc2c(c(OCC(F)(F)F)c(C(=O)NC3CCN(C(=O)CO)CC3)n2C)c(=O)n1CC(=O)c1cccc(OC)c1` [Example 656, 6-ethyl-N-[1-(hydroxyacetyl)piperidin-4-yl]-5-[2-(3-methoxyphenyl)-2-oxoethyl]-1-methyl-4-oxo-3-(2,2,2-trifluoroethoxy)-4,5-dihydro-1H-pyrrolo[3,2-c]pyridine-2-carboxamide], in experiment [1], the inhibition at 1 µM was 100%.

On to `CCc1cc2c(c(OCC(F)(F)F)c(C(=O)NC3CCN(C(=O)CO)CC3)n2C)c(=O)n1CC(=O)c1cccc(Cl)c1` [Example 657, 5-[2-(3-chlorophenyl)-2-oxoethyl]-6-ethyl-N-[1-(hydroxyacetyl)piperidin-4-yl]-1-methyl-4-oxo-3-(2,2,2-trifluoroethoxy)-4,5-dihydro-1H-pyrrolo[3,2-c]pyridine-2-carboxamide], for which the inhibition at 1 µM in experiment [1] was 100%.

Regarding `CCc1cc2c(c(OCC(F)(F)F)c(C(=O)NC3CCN(C(=O)CO)CC3)n2C)c(=O)n1Cc1ccccc1OC` [Example 658, 6-ethyl-N-[1-(hydroxyacetyl)piperidin-4-yl]-5-(2-methoxybenzyl)-1-methyl-4-oxo-3-(2,2,2-trifluoroethoxy)-4,5-dihydro-1H-pyrrolo[3,2-c]pyridine-2-carboxamide], the inhibition at 1 µM in experiment [1] was 100%.

Turning to `CCc1cc2c(c(OCC(F)(F)F)c(C(=O)NC3CCN(C(=O)CO)CC3)n2C)c(=O)n1Cc1ccccc1Cl` [Example 660, 5-(2-chlorobenzyl)-6-ethyl-N-[1-(hydroxyacetyl)piperidin-4-yl]-1-methyl-4-oxo-3-(2,2,2-trifluoroethoxy)-4,5-dihydro-1H-pyrrolo[3,2-c]pyridine-2-carboxamide], the inhibition at 1 µM in experiment [1] worked out at 100%.

As for `CCc1cc2c(c(OCC(F)(F)F)c(C(=O)NC3CCN(C(=O)CO)CC3)n2C)c(=O)n1CCc1ccccc1` [Example 661, 6-ethyl-N-[1-(hydroxyacetyl)piperidin-4-yl]-1-methyl-4-oxo-5-(2-phenylethyl)-3-(2,2,2-trifluoroethoxy)-4,5-dihydro-1H-pyrrolo[3,2-c]pyridine-2-carboxamide], the inhibition at 1 µM in experiment [1] is 100%.

Usually inhibition stands for the drop in the measured response relative to a control, in per cent.
